Paper PMC6572184, “New γ-Halo-δ-lactones and δ-Hydroxy-γ-lactones with Strong Cytotoxic Activity” (Molecules, 2019)
Read-outs that look alike come from different tables or passages of the source.

Legend:
[1] = tested on: Escherichia coli ATCC 8739; assay: Bactericidal activity, CFU counting method; assay type: cell-based; settings: E. coli ATCC 8739; 18 h at 37 °C; Control 9.47, Control with DMSO 9.30
Protocol: (§1) The bacterial cultures: Escherichia coli ATCC 8739 and Staphylococcus aureus ATCC 65389 were grown on Luria–Bertani Agar for 18 h at 37 ^∘ C. The strain suspension was prepared in 0.85% saline, with an optical density equivalent to a 0.5 McFarland standard. Next, the following mixtures were prepared: 180 μ L of sterile enriched broth (BTL), 10 μ L of the bacterial suspension and 10 μ L of the tested compound (range 0.1–50 μ g/mL) solubilized in DMSO. As a negative control, only DMSO was added. As a sterility control, 180 μ L of BTL and 20 μ L saline were used. The microtiter plate was incubated at 37 ^∘ C for 18 h. The colony forming unit (CFU) method was used to evaluate the microbial population. The experiment was repeated three times. Gentamicin was used as the reference antibiotic.

[2] = tested on: Staphylococcus aureus ATCC 65389; assay: Bactericidal activity, CFU counting method; assay type: cell-based; settings: S. aureus ATCC 65389; for Number of CFU/mL (× 10^7): 18 h at 37 °C, Control 21.36, Control with DMSO 20.85; for less CFU/mL (reduction of the number of CFU/mL): versus control
Protocol: as §1

[3] = MTT reduction cytotoxicity assay; assay type: cell-based, human; settings: human, AGS cells (human gastric adenocarcinoma), 24 h, read-out: mean percentage of viable cells ± SD
Protocol: (§2) Cell cultures: The L929 mouse fibroblasts and human gastric adenocarcinoma cell line AGS were used for in vitro cytotoxicity assays. The cells were maintained under standard conditions (37 ^∘ C, 5% CO 2 ) in 25 cm^2 tissue culture flasks in RPMI-1640 medium supplemented with 10% fetal bovine serum (FBS) and antibiotics: 100 U/mL penicillin and 100 μ g/mL streptomycin. The cell suspension containing 10 ^8 cells in 1 mL, was obtained by treatment of confluent monolayers with 0.25% trypsin solution, washed and subcultured. Cell cultures were supplemented with medium to maintain them in log phase growth. The viability of the cells was assessed by exclusion of trypan blue dye.
(§3) Measurements of cellular metabolic activity and global growth inhibition: L929 cells were seeded into 96-well plates (2 × 10 ^5 cells/well) for 24 h, at 37 ^∘ C, 5% CO2 . Tested compounds 5a–c, 6a–c, 7a–c, 8a–c, 9b,c, 10b,c, 12a and 13a were diluted serially in RPMI-1640 medium in concentrations of 50, 20, 10, 5, 0.5 and 0.1 μ g/mL, added to the cells (100 μ L/well), and incubated under standard conditions for 24 h. The potential harmful effect of lactones on L929 and AGS cells was assessed by the ability of the cells to reduce 3-(4,5-dimethylthiazol-2-yl)-2,5-diphenyltetrazolium bromide (MTT) to formazan. The solution of MTT (5 mg/mL in PBS), was added to each well and the plates were incubated for 4h at 37 ^∘ C. Formazan crystals were dissolved with acidic isopropanol (0.1 M HCl in absolute isopropanol) and the plates were read in a plate reader (Victor 2) at 570 nm. The percentage of MTT reduction was calculated by comparing the absorbance of treated cells to that of untreated control cells. Results are expressed as the mean percentage of viable cells ± standard deviation (SD) of four independent experiments. Statistical significance was accepted at a p-value < 0.05.

[4] = tested on: AGS cell lines (human gastric adenocarcinoma); assay: MTT reduction cytotoxicity assay; assay type: cell-based; settings: Homo sapiens
Protocol: as §2, §3

[5] = MTT reduction cytotoxicity assay; assay type: cell-based, mouse; settings: mouse, L929 cells (mouse fibroblasts), read-out: mean percentage of viable cells ± SD
Protocol: as §2, §3

[6] = tested on: L929 cell lines (mouse fibroblasts); assay: MTT reduction cytotoxicity assay; assay type: cell-based; settings: 24 h
Protocol: as §2, §3

Compound | Number of CFU/mL (× 10^7) [1] | bactericidal activity (in words) [2] | Number of CFU/mL (× 10^7) [2] | viability at 24 h, 0.1 μg/mL [3] [%] | viability at 24 h, 0.5 μg/mL [3] [%] | viability at 24 h, 5 μg/mL [3] [%] | viability at 24 h, 10 μg/mL [3] [%] | viability at 24 h, 20 μg/mL [3] [%] | viability at 24 h, 50 μg/mL [3] [%] | IC50 [4] [µM] | viability at 24 h, 0.1 μg/mL [5] [%] | viability at 24 h, 0.5 μg/mL [5] [%] | viability at 24 h, 5 μg/mL [5] [%] | viability at 24 h, 10 μg/mL [5] [%] | viability at 24 h, 20 μg/mL [5] [%] | viability at 24 h, 50 μg/mL [5] [%] | less CFU/mL (reduction of the number of CFU/mL) [2] | melting point [°C] | mean percentage of viable cells ± SD ([6]; 5 μg/mL) [%] | mean percentage of viable cells ± SD ([6]; 10 μg/mL) [%]
C[C@@H]1CC(=O)O[C@H]1[C@@H](O)c1cccc2ccccc12 (mixture of isomers) [12a, Trans-dihydro-5-((S)-hydroxy(naphthalen-1-yl)methyl)-4-methylfuran-2(3H)-one] | 9.43 × 10^7 CFU/mL | did not show bactericidal activity | 21.15 × 10^7 CFU/mL | 39 ± 0.09 | 26 ± 0.05 | 22 ± 0.09 | 18 ± 0.05 | 13 ± 0.08 | 9 ± 0.1 | 4.3 | 19 ± 0.15 | 15 ± 0.05 | 10 ± 0.02 | 8 ± 0.06 | 3 ± 0.03 | 2 ± 0.06 | – | – | – | –
C[C@@H]1CC(=O)O[C@H](c2cccc3ccccc23)[C@H]1Cl (relative stereo) [5a, Trans,trans-5-chloro-tetrahydro-4-methyl-6-(naphthalen-1-yl)pyran-2-one] | 6.41 × 10^7 CFU/mL | – | 2.74 × 10^7 CFU/mL | 54 ± 0.07 | 48 ± 0.05 | 43 ± 0.09 | 27 ± 0.1 | 18 ± 0.08 | 15 ± 0.01 | 1.9 | 17 ± 0.09 | 15 ± 0.02 | 10 ± 0.03 | 8 ± 0.07 | 5 ± 0.06 | 1 ± 0.01 | 87% | 157 to 158 | – | –
C[C@@H]1CC(=O)O[C@@H]1C(I)c1ccccc1 (relative stereo) [11b, Cis-dihydro-5-(iodo(phenyl)methyl)-4-methylfuran-2(3H)-one] | – | – | – | – | – | – | – | – | – | – | – | – | – | – | – | – | – | 86 to 87 | – | –
C[C@@H]1CC(=O)O[C@@H]1C(I)c1ccc(F)cc1 (relative stereo) [11c, Cis-5-((4-fluorophenyl)iodomethyl)-dihydro-4-methylfuran-2(3H)-one] | – | – | – | – | – | – | – | – | – | – | – | – | – | – | – | – | – | 118 to 119 | – | –
C[C@@H]1CC(=O)O[C@H]1C(O)c1ccccc1 (relative stereo) [12b, Trans-dihydro-5-(hydroxy(phenyl)methyl)-4-methylfuran-2(3H)-one] | – | – | – | – | – | – | – | – | – | – | – | – | – | – | – | – | – | 86 to 87 | – | –
C[C@@H]1CC(=O)O[C@H]1C(O)c1ccc(F)cc1 (relative stereo) [12c, Trans-5-((4-fluorophenyl)(hydroxy)methyl)-dihydro-4-methylfuran-2(3H)-one] | – | – | – | – | – | – | – | – | – | – | – | – | – | – | – | – | – | 118 to 119 | – | –
C[C@@H]1CC(=O)O[C@@H]1C(O)c1ccccc1 (relative stereo) [13b, Cis-dihydro-5-(hydroxy(phenyl)methyl)-4-methylfuran-2(3H)-one] | – | – | – | – | – | – | – | – | – | – | – | – | – | – | – | – | – | 89 to 91 | – | –
C[C@@H]1CC(=O)O[C@@H]1C(O)c1ccc(F)cc1 (relative stereo) [13c, Cis-5-((4-fluorophenyl)(hydroxy)methyl)-dihydro-4-methylfuran-2(3H)-one] | – | – | – | – | – | – | – | – | – | – | – | – | – | – | – | – | – | 118 to 119 | – | –
CC1CC(=O)OC(c2ccccc2)C1Cl (stereo not drawn) [5b, Trans,trans-5-chloro-tetrahydro-4-methyl-6-phenylpyran-2-one] | 4.06 × 10^7 CFU/mL | – | 7.63 × 10^7 CFU/mL | 35 ± 0.06 | 20 ± 0.09 | 16 ± 0.06 | 14 ± 0.12 | 11 ± 0.07 | 8 ± 0.09 | 2.3 | 20 ± 0.08 | 18 ± 0.15 | – | – | 4 ± 0.02 | 1 ± 0.03 | – | 105 to 106.5 | 12 ± 0.05 | 7 ± 0.06
CC1CC(=O)OC(c2cccc3ccccc23)C1Br (stereo not drawn) [7a, Trans,trans-5-bromo-tetrahydro-4-methyl-6-(naphthalen-1-yl)pyran-2-one] | 5.21 × 10^7 CFU/mL | – | 4.63 × 10^7 CFU/mL | 39 ± 0.02 | 26 ± 0.05 | 25 ± 0.1 | 21 ± 0.03 | 20 ± 0.06 | 8 ± 0.03 | 2.1 | 25 ± 0.02 | 18 ± 0.12 | 12 ± 0.02 | 6 ± 0.07 | 2 ± 0.03 | 1 ± 0.12 | 78–83% | 197 to 198 | – | –
CC1CC(=O)OC(c2ccccc2)C1Br (stereo not drawn) [7b, Trans,trans-5-bromo-tetrahydro-4-methyl-6-phenylpyran-2-one] | 8.63 × 10^7 CFU/mL | – | 10.96 × 10^7 CFU/mL | 40 ± 0.1 | 25 ± 0.1 | 23 ± 0.02 | 20 ± 0.06 | 14 ± 0.03 | 10 ± 0.06 | 3.6 | 25 ± 0.03 | 18 ± 0.08 | 13 ± 0.12 | 10 ± 0.05 | 5 ± 0.15 | 2 ± 0.09 | – | 111 to 112 | – | –
C[C@@H]1CC(=O)O[C@@H]1[C@@H](O)c1cccc2ccccc12 [13a, Cis-dihydro-5-((S)-hydroxy(naphthalen-1-yl)methyl)-4-methylfuran-2(3H)-one] | 6.02 × 10^7 CFU/mL | – | 9.12 × 10^7 CFU/mL | 44 ± 0.12 | 39 ± 0.09 | 29 ± 0.05 | 18 ± 0.12 | 10 ± 0.1 | 8 ± 0.08 | 3.7 | 16 ± 0.09 | 12 ± 0.02 | 9 ± 0.03 | 6 ± 0.06 | 5 ± 0.12 | 1 ± 0.07 | – | 123 to 124 | – | –
